Laboratory results from article PMC10805311, “Pseudomonas aeruginosa two-component system CprRS regulates HigBA expression and bacterial cytotoxicity in response to LL-37 stress” (PLOS Pathogens, 2024).
pKd: −log10 of the molar value.

Key:
higB = assay: qPCR, higB mRNA; type: cell-based, P. aeruginosa
Description: (§1) Overnight bacterial cultures were subcultured in fresh LB medium to OD600 0.8 and the cells were collected by using Trizol. The cDNA was synthesized by using PrimeScript RT reagent Kit. 2 × SYBR qPCR Master Mix was used to perform qPCR assays. The reaction step was 2 × SYBR qPCR Master Mix (Without ROX) 10 μL, upstream Primer (10 μM) 0.4 μL, downstream Primer (10 μM) 0.4 μL, template cDNA 1 μg and ddH2O up to 20 μL. The qPCR procedure was set as: stage 1 (95°C 30 s, repeat once), stage 2 (95°C 10 s, 60°C 30 s, repeat for 40 times) and stage 3 (95°C 15 s, 60°C 1 min, 95°C 15 s, repeat 1 time). The oprL gene was used as a normalizer. The same method was used for mammalian cells, and 18 sRNA served as a normalizer.

pscDEFG operon = assay: Expression of pscDEFG operon; type: cell-based, P. aeruginosa
Description: as §1

P. aeruginosa ΔcprS = assay: Label-free quantitative proteomics of ΔcprS before and after LL-37; type: cell-based; conditions: PscE, PscH, PscJ, ExoT, PcrV, PcrH, PhzA2, PhzB2, PhzF1, FilF, PigA, HsbA; before vs after LL-37
Description: Protein was collected, reduced, and alkylated from WT, ΔcprS, ΔcprR, ΔcprSΔhigB, and ΔcprSΔhigB strains as reported. The total purified peptides were solubilized in 20 μL of 0.1% formic acid (FA, v/v) and the concentration was measured according to BCA assay.
About 2 μg samples were analyzed by orbitrap Fusion Lumos MS coupled online to an EASY-nLC 1200 system with a data-independent acquisition mode (DIA). The mobile phase used for the liquid chromatography consisted of buffer A (0.1% FA) and buffer B (80% acetonitrile, 0.1% FA). The peptides were separated using a 160-min nonlinear gradient consisting of 4–35% buffer B for 85 min, 35–100% buffer B for 60 min and 100% buffer B for 15 min at a flow rate of 300 nL min^−1. The acquired DIA data were analyzed by DIA-NN software against the protein database of P. aeruginosa PA14. Data processing was conducted using the software Perseus. Student’s t-test was used to assess the significance of differential expression of proteins (DEPs) between two groups. Proteins that have significance level of P < 0.05 and fold change >1.5 or <–1.5 were considered as DEPs.

cprR = assay: qRT-PCR, cprR transcription; type: cell-based, P. aeruginosa; conditions: oprL as normalizer
Description: as §1

[1] = target: full-length CprS (CprSFL); assay: Microscale thermophoresis (MST), full-length CprS; type: binding, P. aeruginosa; conditions: 100 nM His-tag labelled CprSFL, 16 doubling dilutions from 500 μM peptide, PBST buffer, 25°C 30 min, Monolith NT.115, repeated three times, read-out: Kd (CprSFL + LL-37)
Description: (§2) The E. coli BL21 (DE3) strains harboring pET22b-cprS and pET22b-cprR were cultured at 37°C in LB medium and suppled with 0.4 mM IPTG as the OD600 reached to 0.8. The cultures were incubated at 16°C for an additional 14 h and the cells were collected and resuspended in buffer A (20 mM tris-HCl (pH 8.0), 150 mM NaCl). The cells were lysed by ultrasound and centrifuged at 15, 000 rpm for 20 min at 4°C. Then the supernatant was applied to Ni-agarose resins and eluted with buffer containing 300 mM imidazole. As for full-length CprS, the supernatant needed to be extracted by 2% ELUGENT Detergent and flow 0.02% DDM for elution. The target proteins were further purified via AKTA purifier using buffer A and concentrated to 12 mg/mL.
(§3) The 100 nM CprS with His-tag was labeled with Monolith His-Tag Labelling Kit RED-tris-NTA 2nd Generation Kit and the cationic peptides used in this work were diluted with PBST buffer gradient from 0.5 mM [34]. The proteins and cationic peptide dilutions were mixed and incubated at 25°C for 30 min and detected on a Monolith NT.115 instrument. The data were analyzed by NanoTemper Analysis 1.2.20 software.

higB promoter = assay: β-Galactosidase reporter, higB promoter in P. aeruginosa; type: cell-based
cprS = assay: qRT-PCR, cprS transcription; type: cell-based, P. aeruginosa; conditions: oprL as normalizer
Description: as §1

arnBCADTEF operon = assay: Expression of arnBCADTEF operon; type: cell-based, P. aeruginosa
Description: as §1

higA = assay: Expression of higA; type: cell-based, P. aeruginosa; conditions: WT and ΔcprR or ΔcprS mutants
Description: as §1

CarSR system = conditions: Vibrio cholerae; cited from earlier work
Text: (§4) In the field of microbiology and immunology, the interaction between host antimicrobial peptides and pathogenic bacteria has been a subject of extensive research. The success of bacterial infections depends on a delicate balance of signals exchanged between microbes and hosts. Cationic antimicrobial peptides, including defensins such as α-defensins, β-defensins, and cathelicidin LL-37, are crucial components of innate host defense against bacterial infections. Numerous studies have shown that LL-37 acts as a shield between the host and the external environment, preventing bact ...

[2] = tested on: virulence sensor kinase CovS; conditions: group A streptococcus; cited from earlier work
Text: as §4

[3] = tested on: RAW264.7 macrophages (TNF-α, IL-1β, IL-8, IL-12); assay: Pro-inflammatory cytokine levels in infected macrophages; type: cell-based; conditions: 18s RNA normalizer
Description: as §1

[4] = target: CprS sensor domain (CprSSD, residues 28–163); assay: Microscale thermophoresis (MST), CprS sensor domain; type: binding, P. aeruginosa; conditions: 100 nM His-tag labelled CprSSD (residues 28–163), 16 doubling dilutions from 500 μM peptide, PBST buffer, 25°C 30 min, Monolith NT.115, repeated three times, read-out: Kd (CprSSD + LL-37)
Description: as §2, §3

Raw264.7 macrophages = assay: LDH release cytotoxicity assay of infected macrophages; type: cell-based; conditions: MOI of 10, LL-37-treated WT P. aeruginosa
Description: The Raw264.7 cells were infected with suspended bacteria at a multiplicity of infection (MOI) of 10 in antibiotic-free DMEM medium. Following incubation, the supernatant was collected and the presence of LDH was measured using the LDH cytotoxicity assay kit. The baseline level of LDH release (0% LDH release) was determined using DMEM medium. Cells treated with LDH release agent C0017-1 were used as a positive control for total release (100% LDH release). The percentage of cytotoxicity was calculated according to the instructions provided by the manufacturer.

[5] = tested on: exsA and effectors exoS, exoT, and exoU; assay: Expression of T3SS genes exsA, exoS, exoT, exoU; type: cell-based, P. aeruginosa; conditions: combined mutations of CprRS components and higB gene
Description: as §1

[6] = tested on: CprRS as well as ParRS system; conditions: cited from earlier work
Text: Pseudomonas aeruginosa is a notorious opportunistic pathogen known for its ability to evade host immune defenses, particularly in resisting antimicrobial peptides (AMPs). […] One notable feature is the abundance and diversity of two-component systems (TCS) in P. aeruginosa, which play a crucial role in regulating its response to host and environmental stimuli, including ...

## LL-37
higB; WT strain
  increase in higB mRNA levels upon LL-37 treatment: 8.79 fold
higB; ΔcprR mutant
  increase in higB mRNA levels upon LL-37 treatment: 2.12 fold
higB; ΔcprS mutant
  increase in higB mRNA levels upon LL-37 treatment: 2.74 fold
pscDEFG operon; WT strain
  expression of pscDEFG operon under LL-37: notably induced
pscDEFG operon; mutants
  expression of pscDEFG operon under LL-37: no such induction was observed
P. aeruginosa ΔcprS
  expression of virulence proteins in ΔcprS upon stimulation with LL-37: significant decrease in the expression of several proteins directly involved in virulence processes
cprR
  increase in cprR transcription compared to control without LL-37: 2.2 fold
[1]
  pKd: 5.85
higB promoter; WT
  induction of higB promoter by LL-37: significant positive induction activity on higB promoter
higB promoter; ΔcprR and ΔcprS mutants
  induction of higB promoter by LL-37: markedly reduced
cprS
  increase in cprS transcription compared to control without LL-37: 2.5 fold
arnBCADTEF operon; WT strain
  expression of arnBCADTEF operon under LL-37: markedly induced
arnBCADTEF operon; ΔcprR and ΔcprS mutants
  expression of arnBCADTEF operon under LL-37: this induction was not observed
higA
  effect of LL-37 stimulation on expression of higA: limited effects on the expression of higA
CarSR system
  sensing by CarSR: sense human enteric α-defensin 5 and LL-37 to promote bacterial pathogenicity
[2]
  activation of CovS: activated by LL-37
[3]; macrophages infected with WT strain pretreated with LL-37
  effect of LL-37 pretreatment on inhibition of pro-inflammatory cytokines: enhanced the ability of the WT strain to effectively inhibit the activation of pro-inflammatory cytokines
[3]; macrophages infected with ΔcprS and ΔcprR strains
  effect of LL-37 pretreatment on inhibition of pro-inflammatory cytokines: largely absent
[4]
  pKd: 5.27
Raw264.7 macrophages
  cytotoxicity of LL-37-treated WT strains compared to untreated group: increased cytotoxicity
[5]
  upregulation of T3SS in response to LL-37 stimulation: greatly attenuated

## dynorphin
[6]
  stimulation of CprRS as well as ParRS by dynorphin: increased virulence factor production and adaptive resistance
